Assay results as given in patent US20020120102A1, “Use of dendroaspin as a scaffold for non-dendroaspin domains” (priority 2000, published 2002).
Ends that are not written are not given here.

Tested on: washed platelets
Assay: ADP-induced platelet aggregation (light transmission)
Type: cell-based
Settings: 10 μM ADP, 1.67 mg/ml fibrinogen, washed human platelets
Protocol: Measurement of platelet aggregation—Platelet aggregation was measured by the increase in light transmission as described previously (Lu et al. (1993), supra; Lu et al. (1994) Biochem. J. 304, 929-936). Briefly, platelet rich plasma (PRP) was prepared from citrated human blood, obtained from healthy individuals, by centrifugation at 200×g for 15 min. Washed platelets were prepared from PRP and resuspended in adhesion/aggregation buffer (145 mM NaCl, 5 mM KCl, 1 mM MgCl2, 2 mM CaCl2, 10 mM glucose, 3.5 mg/ml BSA and 10 mM HEPES, pH 7.35) and adjusted to a count of 3×10^8/ml. Platelet aggregation (320 μl incubations) was induced with 10 μM ADP in the presence of 1.67 mg/ml fibrinogen and measured using a Payton Dual-Aggregometer linked to a chart recorder.

Substance: KGD-dendroaspin: dendroaspin scaffold in which the native RGD motif is replaced by KGD; recombinant, expressed in E. coli (RICYNHLGTKPPTTETCQEDSCYKNIWTFDNIIRRGCGCFTPKGDMPGPYCCESDKCNL; ends and bridges not checked; cysteine pairing not given here)
- inhibition of ADP-induced platelet aggregation: potent inhibition
